In patent US20220378046A1, “EFFECTS OF NF-kB SIGNALING INHIBITORS ON BED BUG RESISTANCE TO ORALLY PROVISIONED ENTOMOPATHOGENIC BACTERIA” (South Dakota Board of Regents, priority 2021, published 2022):
Where two headings read alike, the source gives them in different places.

Assays:
Rhodnius prolixus = details: cited from earlier work
[1] = tested on: Bacillus thuringiensis israelensis; assay: Direct effects of NF-kB signaling inhibitors on growth of B. thuringiensis israelensis cultures (OD600); type: cell-based; details: 10 μg/mL; LB medium; shaken overnight at room temperature
From the text: (§1) The effects of NF-kB signaling inhibitors were further assessed on growth of bacterial entomopathogen cultures. Two bacterial entomopathogens were used in the present example. The Gram-positive bacterium B. thuringiensis israelensis was obtained from Carolina Biological Supply (Burlington, N.C., USA). This bacterium was investigated due to its potential activity against bed bugs when ingested. The Gram-negative bacterium P. entomophila was obtained from the German Collection of Microorganisms and Cell Cultures (DSMZ, Braunschweig, Germany). Stocks of these bacteria were grown overnight in Luria-Bertani (LB) medium on a shaker at room temperature.
(§2) To determine if the inhibitors had any direct impact on the growth of entomopathogenic bacteria prior to their administration in vivo, cultures of each bacterium were inoculated into LB medium and individual inhibitors were added to the cultures at a final concentration of 10 μg/mL. Cultures containing equal volumes of DMSO diluent served as controls. After shaking overnight at room temperature, growth of bacteria in the presence of inhibitors was quantified by measuring optical density of the cultures at 600 nm (OD600) on a spectrophotomer. OD600 values of cultures containing inhibitors were then normalized to DMSO controls. Three replicates were conducted with each inhibitor and growth was compared to controls (set at 1) using a one-sample t-test.

Pseudomonas entomophila = assay: Direct effects of NF-kB signaling inhibitors on growth of P. entomophila cultures (OD600); type: cell-based; details: 10 μg/mL; LB medium; shaken overnight at room temperature
From the text: as §1, §2

Cimex lectularius [2] = assay: Toxicity of NF-kB signaling inhibitors fed as lone agents to bed bugs (seven-day survivorship); type: in vivo; details: 5 μg/mL or 10 μg/mL in blood meal; 7 days; chi-square test p=0.54
Procedure: (§3) For the following non-limiting Examples, the Cincinnati SRL strain of Cimex lectularius was used for the population of bed bugs. This strain was derived from a population of individuals collected by technicians from Sierra Research Laboratories, Inc. (Modesto, Calif.) in 2007 and has been maintained under laboratory conditions since this time. Colonies were maintained at the University of South Dakota in plastic jars containing corrugated cardboard harborages at 28 +/−1° C. and 60-70% relative humidity on a 12:12 photoperiod. The colonies were fed aseptically collected defibrinated rabbit blood (Hemostat Laboratories, Dixon, Calif.) once per week using an artificial membrane system (Hemotek Ltd., Blackburn, United Kingdom).
The bed bugs were fed four individual small molecule inhibitors of NF-kB signaling (BMS345541, IKK16, IMD0354, Takinib) alone or in combination with two different bacterial entomopathogens (Pseudomonas entomophila and Bacillus thuringiensis israelensis). […] The effects on both bed bug mortality and bacterial growth were assessed.
The toxicity of NF-kB signaling inhibitors was analyzed by feeding the inhibitors as lone agents to bed bugs. In particular, the four individual small molecule inhibitors of NF-kB signaling (BMS345541, IKK16, IMD0354, Takinib) were analyzed. […] Mortality was then monitored regularly over a period of seven days. […]

Cimex lectularius [3] = assay: Three-day survivorship of bed bugs fed P. entomophila alone or combined with NF-kB signaling inhibitors; type: in vivo; details: for effect on mortality during P. entomophila infection: 10 μg/mL inhibitor in blood meal with P. entomophila, three days, relative to bacterium alone; for mortality at 10 µg/mL: Cimex lectularius, P. entomophila combined with 10 μg/mL inhibitor in blood meal
Procedure: as §3
The effect of the combination treatment of NF-kB signaling inhibitors and bacterial entomopathogens on bed bug resistance to the bacterial entomopathogens was analyzed. To determine if NF-kB signaling inhibitors could reduce resistance to orally provisioned entomopathogenic bacteria, cultures of each bacterium were grown overnight by shaking at room temperature. The following day, cultures of P. entomophila were standardized to an OD600 value of 2.3 (3×10^8 colony forming units/mL) and cultures of B. thuringiensis isralensis were standardized to an OD600 value of 2.2 (7×10^7 colony forming units/mL), based on their overnight growth across replicates. P. entomophila was then further diluted 1:100 in defibrinated rabbit blood, whereas B. thuringiensis israelensis was further diluted 1:50 in defibrinated rabbit blood due to its generally lower virulence. The evaluated inhibitors or DMSO diluent were added to the blood meal containing diluted bacteria to a final concentration of 10 ug/mL. The groups of bed bugs fed DMSO diluent in blood were included as controls. Groups of bed bugs consisting of roughly even numbers of adult male and female bed bugs that had not blood fed for at least seven days were provided access to treated blood meals using the artificial membrane system (Hemotek Ltd.) until fully engorged. Short-term mortality was then monitored over a period of three days. Three independent biological replicates with 10-14 insects per group were carried out and cumulative survival curves were compared using the Gehan-Breslow-Wilcoxon test.

Cimex lectularius [4] = assay: Estimation of P. entomophila load in vivo in bed bugs (CFU/insect); details: 10 μg/mL inhibitor with P. entomophila in blood meal, 24 hours post-infection
Procedure: The bacterial load of entomopathogen was further analyzed to determine whether enhanced mortality during P. entomophila infection was associated with increased bacterial load (reduced resistance). For this analysis, adult male bed bugs that had not fed for at least seven days were provided access to blood meals containing P. entomophila with or without 10 μg/mL of IKK16 using the artificial membrane system (Hemotek Ltd.) until fully engorged. The two treatments were prepared as described in Example 3. After 24 hours, live and dead bed bugs from each infected treatment group were collected. Individual insects were surface sterilized by rinsing with 10% bleach and 70% ethanol and homogenized in sterile phosphate buffered saline (PBS). Homogenates were then serial diluted in PBS and plated on LB agar plates to estimate the load of P. entomophila bacteria expressed as colony forming units (CFU) per insect after 24 hours of incubation at 28° C. Because culturable bed bug commensals in the gut are minimal and slow growing, this methodology allows for the specific quantification of P. entomophila. Two independent biological replicates were conducted (15 individual insects examined per treatment group in total). The insects in each treatment were further subdivided into dead and live categories for analysis. […]

Cimex lectularius [5] = assay: Three-day survivorship of bed bugs fed NF-kB signaling inhibitors combined with B. thuringiensis israelensis; type: in vivo; details: 10 μg/mL inhibitor in blood meal with bacteria; three days; Gehan-Breslow test p=0.86
Procedure: as §3
The effect of the combination treatment of NF-kB signaling inhibitors and bacterial entomopathogens on bed bug resistance to the bacterial entomopathogens was analyzed. To determine if NF-kB signaling inhibitors could reduce resistance to orally provisioned entomopathogenic bacteria, cultures of each bacterium were grown overnight by shaking at room temperature. […] The evaluated inhibitors or DMSO diluent were added to the blood meal containing diluted bacteria to a final concentration of 10 ug/mL. […] Short-term mortality was then monitored over a period of three days. […]

O=C(Nc1cc(C(F)(F)F)cc(C(F)(F)F)c1)c1cc(Cl)ccc1O [IMD0354, N-(3,5-bis(trifluoromethyl)phenyl)-5-chloro-2-hydroxybenzamide]
expression of antimicrobial peptides (Rhodnius prolixus): suppressed expression | mortality during both bacterial and parasitic infections (Rhodnius prolixus): increased mortality | growth of B. thuringiensis israelensis relative to DMSO control (OD600) [1]: inhibited the growth | growth of P. entomophila relative to DMSO control (OD600) (Pseudomonas entomophila): inhibited the growth | direct toxicity to bed bugs (mortality relative to DMSO controls) (Cimex lectularius [2]): not directly toxic

O=C(c1ccc(Nc2nccc(-c3cc4ccccc4s3)n2)cc1)N1CCC(N2CCCC2)CC1 [IKK16, (4-((4-(Benzo[b]thiophen-2-yl)pyrimidin-2-yl)amino)phenyl)(4-(pyrrolidin-1-yl)piperidin-1-yl)methanone]
effect on mortality during P. entomophila infection (Cimex lectularius [3]): significantly increased | mortality at 10 µg/mL (Cimex lectularius [3]; 24 h, read-out: mortality at day 1): 74.3% | mortality at 10 µg/mL (Cimex lectularius [3]; 48 h, read-out: mortality at day 2): 80% | mortality at 10 µg/mL (Cimex lectularius [3]; 72 h, read-out: mortality at day 3): 82.9% | effect on tolerance (mortality with lower bacterial loads) in vivo (Cimex lectularius [4]): did not affect tolerance | P. entomophila load in live bed bugs versus live counterparts not treated with the inhibitor (Cimex lectularius [4]; ANOVA p=0.021): higher loads | growth of B. thuringiensis israelensis relative to DMSO control (OD600) [1]: inhibited the growth | growth of P. entomophila relative to DMSO control (OD600) (Pseudomonas entomophila): did not affect the growth

Cc1ccc2nc(NCCN)c3ncc(C)n3c2c1 [BMS345541, N1-(1,8-dimethylimidazo[1,2-a]quinoxalin-4-yl)ethane-1,2-diamine]
effect on mortality during P. entomophila infection (Cimex lectularius [3]): little to no effect | growth of B. thuringiensis israelensis relative to DMSO control (OD600) [1]: did not affect the growth | growth of P. entomophila relative to DMSO control (OD600) (Pseudomonas entomophila): did not affect the growth | effect on mortality during infection with B. thuringiensis (Cimex lectularius [5]): little to no effect

CCCn1/c(=N/C(=O)c2cccc(C(N)=O)c2)[nH]c2ccccc21 [Takinib, 3-N-(1-propylbenzimidazol-2-yl)benzene-1,3-dicarboxamide]
effect on mortality during P. entomophila infection (Cimex lectularius [3]): little to no effect | growth of B. thuringiensis israelensis relative to DMSO control (OD600) [1]: did not affect the growth | growth of P. entomophila relative to DMSO control (OD600) (Pseudomonas entomophila): did not affect the growth | effect on mortality during infection with B. thuringiensis (Cimex lectularius [5]): little to no effect
